Reference: ChEMBL document CHEMBL5370528, “Synthesis-accessibility-oriented design of c-Jun N-terminal kinase 1 inhibitor” (Eur J Med Chem, 2023)
Calls of active or inactive are those of the source. The calls are words filed in the database; no cut-off is given here.

Experiments:
[1] = biological target: Mitogen-activated protein kinase 9 (Homo sapiens, UniProt P45984); assay: Inhibition of N-terminal GST-tagged recombinant full length human JNK2 expressed in baculovirus infected Sf9 cells using IPTTPITTTYFFFKKK as substrate at 0.1 uM incubated for 60 mins in the presence of ATP by ADP-Glo reagent based luminescence assay relative to control
Mus musculus [2] = assay: Anti-fibrotic activity in bleomycin-induced C57BL/6 mouse model of pulmonary fibrosis assessed as protection against BLM-induced death at 75 mg/kg, po administered twice a day for 3 weeks relative to control; format: functional
Homo sapiens = species on record: Homo sapiens; assay: Selectivity ratio of IC50 for inhibition of N-terminal GST-tagged recombinant full length human JNK2 expressed in baculovirus infected Sf9 cells to IC50 for inhibition of N-terminal GST-tagged recombinant full length human JNK1 expressed in baculovirus infected Sf9 insect cells
[3] = MRT (0 to infinity) in Sprague-Dawley rat at 75 mg/kg, po by HPLC-UV analysis; format: ADME, organism-based; conditions: in vivo
[4] = biological target: Mitogen-activated protein kinase 7 (Homo sapiens) (UniProt Q13164); assay: Inhibition of ERK5 (unknown origin) at 1 uM preincubated for 10 mins followed by substrate addition and measured after 60 mins in the presence of ATP by ADP-Glo reagent based luminescence assay relative to control; conditions: time 70.0 min
[5] = Clearance in Sprague-Dawley rat at 75 mg/kg, po by HPLC-UV analysis; format: ADME, organism-based; conditions: in vivo
[6] = Clearance in Sprague-Dawley rat at 5 mg/kg, iv by HPLC-UV analysis; format: ADME, organism-based; conditions: in vivo
[7] = biological target: c-Jun N-terminal kinase, JNK (Homo sapiens) (UniProt P45983+P53779+P45984); assay: Inhibition of JNK in HFL1 cells assessed as inhibition of anisomycin-activated c-Jun phosphorylation preincubated for 1 hrs followed by anisomycin activation for 1 hrs by Western blot analysis; format: cell-based; conditions: dose 2-50 µM, time 2.0 hrs
[8] = biological target: T1, Dual specificity mitogen-activated protein kinase kinase 7 (Homo sapiens) (UniProt O14733); assay: Inhibition of MAP2K7 (unknown origin) at 1 uM preincubated for 10 mins followed by substrate addition and measured after 60 mins in the presence of ATP by ADP-Glo reagent based luminescence assay relative to control; conditions: time 70.0 min
T1 sequence (whole entry): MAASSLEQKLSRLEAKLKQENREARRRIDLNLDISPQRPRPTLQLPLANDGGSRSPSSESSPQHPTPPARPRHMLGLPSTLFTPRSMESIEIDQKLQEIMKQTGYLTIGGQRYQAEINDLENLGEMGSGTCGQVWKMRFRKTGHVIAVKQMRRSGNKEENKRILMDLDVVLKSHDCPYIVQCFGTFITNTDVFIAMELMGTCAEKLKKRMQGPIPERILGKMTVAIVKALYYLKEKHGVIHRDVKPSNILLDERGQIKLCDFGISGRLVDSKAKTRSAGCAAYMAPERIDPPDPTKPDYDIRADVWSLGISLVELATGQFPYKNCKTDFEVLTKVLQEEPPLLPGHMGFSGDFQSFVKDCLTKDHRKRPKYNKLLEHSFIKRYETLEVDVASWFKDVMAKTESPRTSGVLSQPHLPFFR

Mus musculus [9] = assay: Anti-fibrotic activity in bleomycin-induced C57BL/6 mouse model of pulmonary fibrosis assessed as increase in respiratory function by measuring minute volume at 25 to 75 mg/kg, po administered twice a day for 3 weeks by spirometry analysis; format: functional, organism-based; conditions: dose 25-75 mg/kg
Mus musculus [10] = assay: Anti-fibrotic activity in bleomycin-induced C57BL/6 mouse model of pulmonary fibrosis assessed as increase in respiratory function by measuring expiratory volume at 25 to 75 mg/kg, po administered twice a day for 3 weeks by spirometry analysis; format: functional, organism-based; conditions: dose 25-75 mg/kg
[11] = AUC(0 to infinity) in Sprague-Dawley rat at 5 mg/kg, iv by HPLC-UV analysis; format: ADME, organism-based; design: dose 5 mg/kg, route iv; conditions: in vivo
Mus musculus [12] = assay: Anti-fibrotic activity in bleomycin-induced C57BL/6 mouse model of pulmonary fibrosis assessed as increase in respiratory function by measuring tidal volume at 25 to 75 mg/kg, po administered twice a day for 3 weeks by spirometry analysis; format: functional, organism-based; conditions: dose 25-75 mg/kg
[13] = biological target: CDK4/Cyclin D3 (Homo sapiens) (UniProt P11802+P30281); assay: Inhibition of CDK4/Cyclin D3 (unknown origin) at 1 uM preincubated for 10 mins followed by substrate addition and measured after 60 mins in the presence of ATP by ADP-Glo reagent based luminescence assay; format: protein-complex assay; conditions: time 70.0 min
Mus musculus [14] = assay: Anti-fibrotic activity in bleomycin-induced C57BL/6 mouse model of pulmonary fibrosis assessed as reduction in collagen accumulation at 25 to 75 mg/kg, po administered twice a day for 3 weeks by Masson's trichome staining based analysis; format: functional, organism-based; conditions: dose 25-75 mg/kg
[15] = biological target: T2, Mitogen-activated protein kinase 8 (Homo sapiens, UniProt P45983); assay: Inhibition of N-terminal GST-tagged recombinant full length human JNK1 expressed in baculovirus infected Sf9 insect cells using IPTTPITTTYFFFKKK as substrate at 1 uM incubated for 60 mins in the presence of ATP by ADP-Glo reagent based luminescence assay relative to control
[16] = biological target: Mitogen-activated protein kinase 11 (Homo sapiens) (UniProt Q15759); assay: Inhibition of p38beta (unknown origin) at 1 uM preincubated for 10 mins followed by substrate addition and measured after 60 mins in the presence of ATP by ADP-Glo reagent based luminescence assay relative to control; conditions: time 70.0 min
Mus musculus [17] = assay: Anti-fibrotic activity in bleomycin-induced C57BL/6 mouse model of pulmonary fibrosis assessed as restoration of respiratory function at 75 mg/kg, po administered twice a day for 3 weeks by spirometry analysis; format: functional
[18] = biological target: Mitogen-activated protein kinase 3 (Homo sapiens) (UniProt P27361); assay: Inhibition of ERK1 (unknown origin) at 1 uM preincubated for 10 mins followed by substrate addition and measured after 60 mins in the presence of ATP by ADP-Glo reagent based luminescence assay relative to control; conditions: time 70.0 min
[19] = biological target: Mitogen-activated protein kinase 10 (Homo sapiens, UniProt P53779); assay: Inhibition of N-terminal GST-tagged recombinant full length human JNK3 expressed in baculovirus infected Sf9 cells using IPTTPITTTYFFFKKK as substrate at 0.1 uM incubated for 60 mins in the presence of ATP by ADP-Glo reagent based luminescence assay relative to control
Mus musculus [20] = assay: Anti-fibrotic activity in bleomycin-induced C57BL/6 mouse model of pulmonary fibrosis assessed as alleviation of alveolar collapse in lungs at 25 to 75 mg/kg, po administered twice a day for 3 weeks by H&E staining based analysis; format: functional, organism-based; conditions: dose 25-75 mg/kg
[21] = biological target: T2, Mitogen-activated protein kinase 8; assay: Inhibition of N-terminal GST-tagged recombinant full length human JNK1 expressed in baculovirus infected Sf9 insect cells using IPTTPITTTYFFFKKK as substrate incubated for 60 mins in the presence of ATP by ADP-Glo reagent based luminescence assay
Mus musculus [22] = assay: Anti-fibrotic activity in bleomycin-induced C57BL/6 mouse model of pulmonary fibrosis assessed as enhancement of lung respiratory function at 25 to 75 mg/kg, po administered twice a day for 3 weeks by spirometry analysis; format: functional, organism-based; conditions: dose 25-75 mg/kg

T2 sequence (P45983 whole entry): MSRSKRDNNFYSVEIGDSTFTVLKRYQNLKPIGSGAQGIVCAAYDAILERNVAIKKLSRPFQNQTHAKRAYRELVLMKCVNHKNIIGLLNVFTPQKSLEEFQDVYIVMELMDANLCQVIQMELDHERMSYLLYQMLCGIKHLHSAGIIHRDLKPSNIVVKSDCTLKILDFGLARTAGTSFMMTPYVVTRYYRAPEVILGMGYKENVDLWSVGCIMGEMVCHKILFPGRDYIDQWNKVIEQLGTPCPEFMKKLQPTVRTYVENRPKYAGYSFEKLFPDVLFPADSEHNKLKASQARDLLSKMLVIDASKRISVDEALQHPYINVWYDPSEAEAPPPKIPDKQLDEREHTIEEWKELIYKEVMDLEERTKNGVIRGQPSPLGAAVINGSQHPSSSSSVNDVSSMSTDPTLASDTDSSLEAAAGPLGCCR
Sequence of Mitogen-activated protein kinase 7 (Homo sapiens) (Q13164 2-816 limits assumed): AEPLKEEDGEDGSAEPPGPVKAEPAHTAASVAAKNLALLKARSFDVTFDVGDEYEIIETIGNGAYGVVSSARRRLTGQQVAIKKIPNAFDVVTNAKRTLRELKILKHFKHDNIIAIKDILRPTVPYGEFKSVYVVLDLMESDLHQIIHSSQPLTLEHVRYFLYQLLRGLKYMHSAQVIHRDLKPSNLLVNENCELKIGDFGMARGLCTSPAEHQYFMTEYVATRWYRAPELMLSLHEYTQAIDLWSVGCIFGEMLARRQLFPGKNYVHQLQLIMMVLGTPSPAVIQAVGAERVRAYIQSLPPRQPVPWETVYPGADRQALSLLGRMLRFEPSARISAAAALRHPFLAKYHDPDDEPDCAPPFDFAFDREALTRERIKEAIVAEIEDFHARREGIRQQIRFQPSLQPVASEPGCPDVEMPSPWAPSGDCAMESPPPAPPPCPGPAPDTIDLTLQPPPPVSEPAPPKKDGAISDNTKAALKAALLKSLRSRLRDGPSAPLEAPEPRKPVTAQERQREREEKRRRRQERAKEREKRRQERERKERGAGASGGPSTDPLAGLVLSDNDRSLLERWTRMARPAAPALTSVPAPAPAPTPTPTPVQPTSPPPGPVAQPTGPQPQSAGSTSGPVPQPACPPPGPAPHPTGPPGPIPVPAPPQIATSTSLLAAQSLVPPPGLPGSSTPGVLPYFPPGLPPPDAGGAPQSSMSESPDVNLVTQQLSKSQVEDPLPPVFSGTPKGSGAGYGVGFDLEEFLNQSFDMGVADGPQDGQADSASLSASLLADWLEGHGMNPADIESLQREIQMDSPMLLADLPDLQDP
Sequence of Mitogen-activated protein kinase 11 (Homo sapiens) (Q15759 whole entry): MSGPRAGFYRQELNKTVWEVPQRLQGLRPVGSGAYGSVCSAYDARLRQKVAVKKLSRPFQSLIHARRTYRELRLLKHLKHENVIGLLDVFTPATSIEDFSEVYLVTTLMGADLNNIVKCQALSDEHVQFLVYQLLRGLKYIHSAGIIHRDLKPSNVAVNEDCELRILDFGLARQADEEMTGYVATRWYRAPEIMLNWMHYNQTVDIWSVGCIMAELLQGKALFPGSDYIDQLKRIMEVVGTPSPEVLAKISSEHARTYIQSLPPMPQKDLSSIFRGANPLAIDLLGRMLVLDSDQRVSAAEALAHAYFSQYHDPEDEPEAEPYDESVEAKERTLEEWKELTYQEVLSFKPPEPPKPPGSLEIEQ
Sequence of Mitogen-activated protein kinase 10 (P53779 whole entry): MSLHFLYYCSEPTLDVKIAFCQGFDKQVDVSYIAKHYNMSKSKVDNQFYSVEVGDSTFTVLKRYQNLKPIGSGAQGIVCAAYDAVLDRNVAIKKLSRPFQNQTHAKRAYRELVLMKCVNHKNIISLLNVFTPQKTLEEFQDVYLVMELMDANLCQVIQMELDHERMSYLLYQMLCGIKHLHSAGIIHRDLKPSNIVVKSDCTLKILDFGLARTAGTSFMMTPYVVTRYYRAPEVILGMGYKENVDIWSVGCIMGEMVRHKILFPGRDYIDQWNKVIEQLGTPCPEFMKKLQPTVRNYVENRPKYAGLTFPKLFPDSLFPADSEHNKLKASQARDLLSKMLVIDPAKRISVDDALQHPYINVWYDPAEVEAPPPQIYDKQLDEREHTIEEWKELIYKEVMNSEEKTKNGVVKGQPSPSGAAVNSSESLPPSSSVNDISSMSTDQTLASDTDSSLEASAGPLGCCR
Sequence of Mitogen-activated protein kinase 9 (P45984 whole entry, looked up): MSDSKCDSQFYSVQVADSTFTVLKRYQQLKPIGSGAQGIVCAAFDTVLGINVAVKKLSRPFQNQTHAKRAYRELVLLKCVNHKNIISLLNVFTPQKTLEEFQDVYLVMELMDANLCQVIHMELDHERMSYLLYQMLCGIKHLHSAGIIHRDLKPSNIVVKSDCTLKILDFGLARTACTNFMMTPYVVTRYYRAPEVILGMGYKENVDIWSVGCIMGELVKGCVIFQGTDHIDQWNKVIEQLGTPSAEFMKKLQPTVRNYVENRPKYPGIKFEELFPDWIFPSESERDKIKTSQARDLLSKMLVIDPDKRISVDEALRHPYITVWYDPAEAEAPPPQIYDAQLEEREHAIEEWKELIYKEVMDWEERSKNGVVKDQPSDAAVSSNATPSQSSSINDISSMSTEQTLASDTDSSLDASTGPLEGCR
Sequence of Mitogen-activated protein kinase 3 (Homo sapiens) (P27361 whole entry): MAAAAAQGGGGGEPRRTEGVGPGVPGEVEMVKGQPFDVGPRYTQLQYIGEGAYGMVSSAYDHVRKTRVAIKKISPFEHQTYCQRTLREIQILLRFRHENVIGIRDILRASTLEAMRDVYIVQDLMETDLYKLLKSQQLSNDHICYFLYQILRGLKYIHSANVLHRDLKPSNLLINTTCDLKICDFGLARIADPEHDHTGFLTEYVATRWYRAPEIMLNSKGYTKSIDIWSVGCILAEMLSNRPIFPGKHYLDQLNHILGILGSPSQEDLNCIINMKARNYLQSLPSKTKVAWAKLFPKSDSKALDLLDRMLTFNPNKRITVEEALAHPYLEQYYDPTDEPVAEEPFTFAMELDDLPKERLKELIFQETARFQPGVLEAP

`CC(C)(C)CNc1ncc(Br)c(Nc2ccccc2C(N)=O)n1` showed an inhibition [1] of 43%, an Activity (Mus musculus [2]) of 100% and a Ratio IC50 (Homo sapiens) of 3.36. The MRT inf [3] was 5.45 h, the inhibition [4] was 13.5% and the CL/F [5] was 860 mL/min/kg. For the same compound, the clearance [6] was 131 mL/min/kg, the inhibition [7] was “Dose-Dependent Effect” and the inhibition [8] was 8.7%. The Activity (Mus musculus [9]) was “Active”, the Activity (Mus musculus [10]) was “Active” and the AUC(0-inf) [11] was 868 ng·h/mL. For the same compound, the Activity (Mus musculus [12]) was “Active”, the inhibition [13] was 41.9% and the Activity (Mus musculus [14]) was “Active”. For the same compound, the inhibition [15] was 99%, the inhibition [16] was 9.6% and the Activity (Mus musculus [17]) was roughly 100%. For the same compound, the inhibition [18] was 25.9%, the inhibition [19] was 78.5% and the Activity (Mus musculus [20]) was “Active”. For the same compound, the IC50 [21] was 33.5 nM and the Activity (Mus musculus [22]) was “Active”.
